Assay results reported in ChEMBL document CHEMBL2074493, “Reversal of multidrug resistance-associated protein-mediated drug resistance by the pyridine analog PAK-104P” (Mol Pharmacol, 1997).

What was measured:
[1] = biological target: T1, Multidrug resistance-associated protein 1 (Homo sapiens, UniProt P33527); assay: TP_TRANSPORTER: increase in Vincristine intracellular accumulation (Vincristine: 1 uM, PAK-104P: 10 uM) in KB-3-1 and C-A120 cell; format: functional, cell-based; conditions: kb-3-1;c-a120, 10 µM
[2] = biological target: T1, Multidrug resistance-associated protein 1; assay: TP_TRANSPORTER: intracellular accumulation in KB-3-1 and C-A120 cells; format: functional, cell-based, KB-3-1; C-A120

T1 sequence (P33527 whole entry): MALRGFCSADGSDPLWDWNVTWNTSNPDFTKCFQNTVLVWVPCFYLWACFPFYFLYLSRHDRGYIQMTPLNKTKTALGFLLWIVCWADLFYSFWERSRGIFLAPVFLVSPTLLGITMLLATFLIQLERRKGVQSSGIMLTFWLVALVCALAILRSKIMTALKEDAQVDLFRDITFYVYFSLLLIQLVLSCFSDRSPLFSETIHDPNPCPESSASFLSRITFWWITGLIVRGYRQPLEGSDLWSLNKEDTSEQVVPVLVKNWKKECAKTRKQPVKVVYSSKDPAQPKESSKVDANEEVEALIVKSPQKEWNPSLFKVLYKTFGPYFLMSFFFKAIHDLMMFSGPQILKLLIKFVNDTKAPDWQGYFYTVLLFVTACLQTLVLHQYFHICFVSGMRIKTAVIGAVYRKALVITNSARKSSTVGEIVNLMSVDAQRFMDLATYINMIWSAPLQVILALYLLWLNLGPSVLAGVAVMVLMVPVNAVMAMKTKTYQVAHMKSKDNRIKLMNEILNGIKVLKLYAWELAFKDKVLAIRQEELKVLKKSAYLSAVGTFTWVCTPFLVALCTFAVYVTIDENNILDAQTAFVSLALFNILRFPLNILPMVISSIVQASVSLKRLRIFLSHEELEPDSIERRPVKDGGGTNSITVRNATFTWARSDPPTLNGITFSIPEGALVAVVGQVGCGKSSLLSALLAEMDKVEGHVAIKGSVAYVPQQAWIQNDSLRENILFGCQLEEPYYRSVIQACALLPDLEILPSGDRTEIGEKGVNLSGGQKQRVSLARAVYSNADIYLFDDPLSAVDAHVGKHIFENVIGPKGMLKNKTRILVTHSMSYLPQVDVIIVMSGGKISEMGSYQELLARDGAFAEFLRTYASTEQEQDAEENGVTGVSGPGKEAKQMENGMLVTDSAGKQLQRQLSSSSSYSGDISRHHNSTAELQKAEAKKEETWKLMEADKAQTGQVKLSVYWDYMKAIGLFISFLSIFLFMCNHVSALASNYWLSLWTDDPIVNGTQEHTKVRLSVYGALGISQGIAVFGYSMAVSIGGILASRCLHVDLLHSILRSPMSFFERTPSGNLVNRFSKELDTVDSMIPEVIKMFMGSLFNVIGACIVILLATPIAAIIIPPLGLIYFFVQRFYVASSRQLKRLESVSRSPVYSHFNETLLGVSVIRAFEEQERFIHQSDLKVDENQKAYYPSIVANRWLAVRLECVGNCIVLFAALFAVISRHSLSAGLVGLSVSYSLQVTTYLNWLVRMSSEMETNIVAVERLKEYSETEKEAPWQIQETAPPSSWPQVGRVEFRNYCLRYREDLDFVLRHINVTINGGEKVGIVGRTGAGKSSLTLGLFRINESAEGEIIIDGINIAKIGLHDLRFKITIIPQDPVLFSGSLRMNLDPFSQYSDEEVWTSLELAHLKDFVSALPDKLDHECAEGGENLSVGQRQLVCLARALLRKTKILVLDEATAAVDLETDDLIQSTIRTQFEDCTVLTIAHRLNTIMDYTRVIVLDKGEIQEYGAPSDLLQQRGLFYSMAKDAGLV

Activity [1]	Activity [2]	SMILES
inhibitor [1.3 to 1.7-fold]	–	Cc1nc(C)c(P2(=O)O[C@H](C)C[C@@H](C)O2)c(-c2cccc([N+](=O)[O-])c2)c1C(=O)OCCN1CCN(C(c2ccccc2)c2ccccc2)CC1 (some centres not stated)
–	substrate [+]	CC[C@]1(O)C[C@H]2CN(CCc3c([nH]c4ccccc34)[C@@](C(=O)OC)(c3cc4c(cc3OC)N(C=O)[C@H]3[C@@](O)(C(=O)OC)[C@H](OC(C)=O)[C@]5(CC)C=CCN6CC[C@]43[C@@H]65)C2)C1 [VINCRISTINE]
